According to patent EP1232754A2, “Use of cationic helix peptides for treatment of sepsis and for detection and removal of endotoxins” (Commonwealth Biotechnologies, Inc., priority 2001, dated 2002):
Bridges are numbered along the chain shown (N, C = ends). Roman numbers before positions name the chains, in order. [ ]: non-standard residue; d: D form. Dap = NC[C@H](N)C(=O)O

What was measured:
E. coli (strain JM 109) [1] = test: Neutralization of endotoxin presented by intact E. coli, endotoxin chromogenic assay; type: biochemical, Escherichia coli; conditions: 3e06 or 3e07 E. coli per mL; increasing peptide concentrations; within 10 min at 37°C (Figure 5)
E. coli (strain JM 109) [2] = test: as above; type: biochemical, Escherichia coli; conditions: TR3 CONST 200 µg/mL; for % neutralization / Endotoxin Equivalents: 10 min, 37°C
Description: LPS is presented on the surface of gram-negative bacteria, such as Escherichia coli (E. coli). It was thus of interest to determine whether TR3 CONST would bind LPS present on whole bacterial cells. The assay method used was the endotoxin chromogenic assay as described above.
Thus, increasing amounts of E. coli (strain JM 109) were incubated (10 min; 37°C) in the presence or absence of 200 µg/mL TR3 CONST in 10 mM phosphate-150 mM NaCI-3 mM KCI buffer, pH 7.4. An aliquot of the incubation mixture was then assayed for residual endotoxin activity as previously described.
Equivalent endotoxin concentrations are deduced by reference to the endotoxin calibration curve.

[3] = Titration circular dichroism spectroscopy of endotoxin binding; conditions: CD titration
Description: Circular dichroism (CD) spectroscopy can be used to determine the fractional percent of secondary structural elements present in a peptide preparation. Titration CD spectroscopy can be used to assess the effect of binding a ligand on the reorganization of peptide structure (You, Scarsdale, and Harris 1991; Sobel, Soler, et al 1992; Soler, Sobel and Harris 1992; Tyler-Cross, Sobel et al 1993; Tyler-Cross, Sobel, Marques et al, 1994). Thus, incremental amounts of endotoxin were added to a solution of TR3 CONST and the effect of binding endotoxin by the peptide was assessed by CD spectroscopy.
By CD, Tris Arg Helix #3 (constrained) is 18% helix in solution (20°C) but complexation with endotoxin increases the helix character of the peptide to nearly 50% (Figure 3). Note that binding of endotoxin is dose dependent and saturable.

[4] = Neutralization of endotoxin added to plasma or buffer, kinetic chromogenic Limulus Amebocyte Lysate endotoxin assay; type: biochemical
Source text: The presence of endotoxin may routinely be measured using, for example, a kinetic chromogenic method. The assay involves a complete set of enzyme reactions which are described in detail in the following publications, each of which is hereby incorporated by reference. Endosafe Limulus Amebocyte Lysate Endochrome-K™ package insert. (Endosafe, Charleston, SC) Pearson III, F., Pyrogens/Endotoxins, LAL Testing and Depyrogenation, 1985. Watson, S., Levin, J., and Novitsky, T., Progress in Clinical and Biological Research, Endotoxins and their detection with the Limulus Amebocyte Lysate Test, 93.
In the course of the endotoxin assay, a calibration curve is prepared which is a plot of logarithm of the time of the kinetic endpoint of a chromogenic reaction versus the logarithm of known concentrations of endotoxin.
Thus, if endotoxin is added to aqueous buffer solutions or to plasma the amount of endotoxin present can be assayed by reference to the calibration curve. Similarly, if plasma, plasma fractions, patient samples or any test solution contains an endogenous level of endotoxin, the level can also be determined by reference to the calibration curve.
Endotoxin was purposely added to plasma to a final concentration of 10 ng/mL and increasing concentrations of the compounds Arg Helix #2 (a monomeric cationic helix peptide), Bis Arg Helix #2 (which contains 2 copies of Arg Helix #2), Tris Arg Helix #3 (which contains 3 copies of Arg Helix #3), Tetra Arg Helix #3 (4 copies of Arg Helix #3) or Tris Arg Helix #3 (constrained) (3 copies of Arg Helix #3 constrained by design to present a "binding groove" within the molecule) were added to these same samples (Table 1).

Substance: I: Ac-AEARARRAAARAARRAKKP[Dap]E-NH2 / II: Ac-AEARARRAAARAARRA / III: Ac-AEARARRAAARAARRA (amide I:18-II:C, I:20-III:C) [Tris Arg Helix #3 (constrained)]
- neutralization of endotoxin as presented on the surface of E. coli (E. coli (strain JM 109) [1]): dose dependent neutralization
- % neutralization (E. coli (strain JM 109) [2]; E. coli 3e03 organisms/mL): 100%
- Endotoxin Equivalents (E. coli (strain JM 109) [2]; E. coli 3e03 organisms/mL): 0.00 ng/mL
- % neutralization (E. coli (strain JM 109) [2]; E. coli 3e04 organisms/mL): 100%
- Endotoxin Equivalents (E. coli (strain JM 109) [2]; E. coli 3e04 organisms/mL): 0.00 ng/mL
- % neutralization (E. coli (strain JM 109) [2]; E. coli 3e05 organisms/mL): 100%
- Endotoxin Equivalents (E. coli (strain JM 109) [2]; E. coli 3e05 organisms/mL): 0.00 ng/mL
- % neutralization (E. coli (strain JM 109) [2]; E. coli 3e06 organisms/mL): 87.9%
- Endotoxin Equivalents (E. coli (strain JM 109) [2]; E. coli 3e06 organisms/mL): 6.97 ng/mL
- % neutralization (E. coli (strain JM 109) [2]; E. coli 3e07 organisms/mL): 48.8%
- Endotoxin Equivalents (E. coli (strain JM 109) [2]; E. coli 3e07 organisms/mL): 94.3 ng/mL
- Endotoxin Equivalents (E. coli (strain JM 109) [2]; E. coli 3e08 organisms/mL): 440.0 ng/mL
- neutralization of the endotoxin activity (E. coli (strain JM 109) [2]; E. coli up to 3e06 organisms/mL): complete neutralization
- Kd [3]: 870 nM
- N, stoichiometry of binding (endotoxin:peptide) [3]: 0.91
- endotoxin quantitatively bound ([4]; 1 mg/ml peptide, water or plasma solution): > 1 µg/mL
- Percent Binding of ([4]; Endotoxin 5, peptide 2.5 (ng/mL and mg/mL)): 100%
- Percent Binding of ([4]; Endotoxin 50, peptide 2.5 (ng/mL and mg/mL)): 100%
- Percent Binding of ([4]; Endotoxin 500, peptide 1.0 (ng/mL and mg/mL)): ~100%
- neutralization of endotoxin added to aqueous samples ([4]; aqueous samples, compared with plasma): same results were obtained
